From ChEMBL document CHEMBL4138123, “Design, synthesis and biological evaluation of novel pyrazolochalcones as potential modulators of PI3K/Akt/mTOR pathway and inducers of apoptosis in breast cancer cells” (Eur J Med Chem, 2017)

How the values were obtained:
Type in all cases: functional
UO-31 = experiment: Cytotoxicity against human UO31 cells assessed as growth inhibition after 48 hrs by sulforhodamine B assay; conditions: UO-31, 48 h
KM12 = experiment: Cytotoxicity against human KM12 cells assessed as cell growth at 100 uM after 48 hrs by sulforhodamine B assay relative to control; conditions: KM12, 48 h, read-out: Activity
SF-539 [1] = experiment: Cytotoxicity against human SF539 cells assessed as cell growth at 10 uM after 48 hrs by sulforhodamine B assay relative to control; conditions: SF-539, 48 h, read-out: Activity
MDA-MB-468 = experiment: Cytotoxicity against human MDA-MB-468 cells assessed as cell growth at 100 uM after 48 hrs by sulforhodamine B assay relative to control; conditions: MDA-MB-468, 48 h, read-out: Activity
SK-MEL-5 = experiment: Cytotoxicity against human SK-MEL-5 cells assessed as cell growth at 1 uM after 48 hrs by sulforhodamine B assay relative to control; conditions: SK-MEL-5, 48 h, read-out: Activity
A498 = experiment: Cytotoxicity against human A498 cells assessed as cell growth at 0.01 uM after 48 hrs by sulforhodamine B assay relative to control; conditions: A498, 48 h, read-out: Activity
HCT-116 = experiment: Cytotoxicity against human HCT116 cells assessed as cell growth at 0.1 uM after 48 hrs by sulforhodamine B assay relative to control; conditions: HCT-116, 48 h, read-out: Activity
NCI-H522 [2] = experiment: Cytotoxicity against human NCI-H522 cells assessed as cell growth at 0.01 uM after 48 hrs by sulforhodamine B assay relative to control; conditions: NCI-H522, 48 h, read-out: Activity
U-251 [3] = experiment: Cytotoxicity against human U251 cells assessed as cell growth at 0.1 uM after 48 hrs by sulforhodamine B assay relative to control; conditions: U-251, 48 h, read-out: Activity
T47D [4] = experiment: Cytotoxicity against human T47D cells assessed as cell growth at 0.01 uM after 48 hrs by sulforhodamine B assay relative to control; conditions: read-out: Activity
M14 = experiment: Cytotoxicity against human M14 cells assessed as cell growth at 0.01 uM after 48 hrs by sulforhodamine B assay relative to control; conditions: M14, 48 h, read-out: Activity
A549 [5] = experiment: Cytotoxicity against human A549/ATCC cells assessed as cell growth at 0.01 uM after 48 hrs by sulforhodamine B assay relative to control; conditions: A549, 48 h, read-out: Activity
UACC-62 [6] = experiment: Cytotoxicity against human UACC62 cells assessed as cell growth at 0.1 uM after 48 hrs by sulforhodamine B assay relative to control; conditions: UACC-62, 48 h, read-out: Activity
MDA-MB-435 = experiment: Cytotoxicity against human MDA-MB-435 cells assessed as cell growth at 0.1 uM after 48 hrs by sulforhodamine B assay relative to control; conditions: MDA-MB-435, 48 h, read-out: Activity
NCI/ADR-RES = experiment: Cytotoxicity against human NCI/ADR-RES cells assessed as growth inhibition after 48 hrs by sulforhodamine B assay
DU-145 = experiment: Cytotoxicity against human DU145 cells assessed as cell growth at 1 uM after 48 hrs by sulforhodamine B assay relative to control; conditions: DU-145, 48 h, read-out: Activity
U-251 [7] = experiment: Cytotoxicity against human U251 cells assessed as growth inhibition after 48 hrs by sulforhodamine B assay; conditions: U-251, 48 h
OVCAR-5 = experiment: Cytotoxicity against human OVCAR5 cells assessed as cell growth at 100 uM after 48 hrs by sulforhodamine B assay relative to control; conditions: OVCAR-5, 48 h, read-out: Activity
T47D [8] = experiment: Cytotoxicity against human T47D cells assessed as cell growth at 0.1 uM after 48 hrs by sulforhodamine B assay relative to control; conditions: read-out: Activity
T47D [9] = experiment: Cytotoxicity against human T47D cells assessed as growth inhibition after 48 hrs by sulforhodamine B assay
Malme-3M = experiment: Cytotoxicity against human MALME-3M cells assessed as cell growth at 0.1 uM after 48 hrs by sulforhodamine B assay relative to control; conditions: read-out: Activity
A549 [10] = experiment: Cytotoxicity against human A549/ATCC cells assessed as growth inhibition after 48 hrs by sulforhodamine B assay; conditions: A549, 48 h
SF-539 [11] = experiment: Cytotoxicity against human SF539 cells assessed as cell growth at 0.01 uM after 48 hrs by sulforhodamine B assay relative to control; conditions: SF-539, 48 h, read-out: Activity
NCI-H23 = experiment: Cytotoxicity against human NCI-H23 cells assessed as cell growth at 1 uM after 48 hrs by sulforhodamine B assay relative to control; conditions: NCI-H23, 48 h, read-out: Activity
OVCAR-3 = experiment: Cytotoxicity against human OVCAR3 cells assessed as cell growth at 1 uM after 48 hrs by sulforhodamine B assay relative to control; conditions: OVCAR-3, 48 h, read-out: Activity
NCI-H460 [12] = experiment: Cytotoxicity against human NCI-H460 cells assessed as cell growth at 100 uM after 48 hrs by sulforhodamine B assay relative to control; conditions: NCI-H460, 48 h, read-out: Activity
NCI-H460 [13] = experiment: Cytotoxicity against human NCI-H460 cells assessed as cell growth at 1 uM after 48 hrs by sulforhodamine B assay relative to control; conditions: NCI-H460, 48 h, read-out: Activity
SK-OV-3 = experiment: Cytotoxicity against human SKOV3 cells assessed as cell growth at 0.01 uM after 48 hrs by sulforhodamine B assay relative to control; conditions: SK-OV-3, 48 h, read-out: Activity
HCT-15 = experiment: Cytotoxicity against human HCT15 cells assessed as growth inhibition after 48 hrs by sulforhodamine B assay; conditions: HCT-15, 48 h
UACC-62 [14] = experiment: Cytotoxicity against human UACC62 cells assessed as growth inhibition after 48 hrs by sulforhodamine B assay; conditions: UACC-62, 48 h
NCI-H522 [15] = experiment: Cytotoxicity against human NCI-H522 cells assessed as cell growth at 10 uM after 48 hrs by sulforhodamine B assay relative to control; conditions: NCI-H522, 48 h, read-out: Activity
MDA-MB-231 [16] = experiment: Cytotoxicity against human MDA-MB-231 cells assessed as growth inhibition after 48 hrs by sulforhodamine B assay; conditions: MDA-MB-231, 48 h
RXF 393 = experiment: Cytotoxicity against human RXF393 cells assessed as growth inhibition after 48 hrs by sulforhodamine B assay; conditions: RXF 393, 48 h
MDA-MB-231 [17] = experiment: Cytotoxicity against human MDA-MB-231 cells assessed as cell growth at 0.1 uM after 48 hrs by sulforhodamine B assay relative to control; conditions: MDA-MB-231, 48 h, read-out: Activity
SF-268 = experiment: Cytotoxicity against human SF268 cells assessed as cell growth at 10 uM after 48 hrs by sulforhodamine B assay relative to control; conditions: SF-268, 48 h, read-out: Activity

In the case of `COc1ccc(-c2cc(/C=C/C(=O)c3ccc(N)cc3)[nH]n2)cc1`, the GI50 (UO-31) was 1.18 µM, the LC50 (UO-31) was 5.54 µM and the TGI (UO-31) was 2.56 µM. It also gave a growth at 100 µM (KM12) of -78%, a growth at 10 µM (SF-539 [1]) of -61% and a growth at 100 µM (MDA-MB-468) of -51%. It also gave a growth at 1 µM (SK-MEL-5) of 90%, a growth at 0.01 µM (A498) of 88% and a growth at 0.1 µM (HCT-116) of 105%. It also gave a growth at 0.01 µM (NCI-H522 [2]) of 84%, a growth at 0.1 µM (U-251 [3]) of 90% and a growth at 0.01 µM (T47D [4]) of 98%. For the same molecule, the growth at 0.01 µM (M14) was 102%, the growth at 0.01 µM (A549 [5]) was 101% and the growth at 0.1 µM (UACC-62 [6]) was 97%. For the same molecule, the growth at 0.1 µM (MDA-MB-435) was 103%, the GI50 (NCI/ADR-RES) was 2.86 µM and the LC50 (NCI/ADR-RES) was > 100 µM. For the same molecule, the TGI (NCI/ADR-RES) was 15.5 µM, the growth at 1 µM (DU-145) was 64% and the GI50 (U-251 [7]) was 1.24 µM. It also gave an LC50 (U-251 [7]) of 5.3 µM, a TGI (U-251 [7]) of 2.57 µM and a growth at 100 µM (OVCAR-5) of -86%. The growth at 0.1 µM (T47D [8]) was 87%, the GI50 (T47D [9]) was 1.47 µM and the LC50 (T47D [9]) was 85.8 µM. It also gave a TGI (T47D [9]) of 9.77 µM, a growth at 0.1 µM (Malme-3M) of 86% and a GI50 (A549 [10]) of 2.55 µM. For the same molecule, the LC50 (concentration giving 50% net cell kill) (A549 [10]) was 46.9 µM, the TGI (A549 [10]) was 10.2 µM and the growth at 0.01 µM (SF-539 [11]) was 98%. For the same molecule, the growth at 1 µM (NCI-H23) was 93%, the growth at 1 µM (OVCAR-3) was 63% and the growth at 100 µM (NCI-H460 [12]) was -70%. For the same molecule, the growth at 1 µM (NCI-H460 [13]) was 92%, the growth at 0.01 µM (SK-OV-3) was 101% and the GI50 (HCT-15) was 1 µM. The LC50 (HCT-15) was 34.9 µM, the TGI (HCT-15) was 3.62 µM and the GI50 (UACC-62 [14]) was 1.48 µM. For the same molecule, the LC50 (UACC-62 [14]) was 5.84 µM, the TGI (UACC-62 [14]) was 2.94 µM and the growth at 10 µM (NCI-H522 [15]) was -70%. For the same molecule, the GI50 (MDA-MB-231 [16]) was 2.14 µM, the LC50 (MDA-MB-231 [16]) was 55.5 µM and the TGI (MDA-MB-231 [16]) was 8.29 µM. The GI50 (RXF 393) was 1.67 µM, the LC50 (concentration killing 50% of cells) (RXF 393) was 15 µM and the TGI (RXF 393) was 4.19 µM. For the same molecule, the growth at 0.1 µM (MDA-MB-231 [17]) was 89% and the growth at 10 µM (SF-268) was -29%.

`COc1ccc(C(=O)/C=C/c2cc(-c3ccc4c(c3)OCO4)n[nH]2)cc1OC` gave a GI50 (UO-31) of 2.32 µM, an LC50 (UO-31) of 34.5 µM and a TGI (UO-31) of 10.1 µM. For the same molecule, the growth at 100 µM (KM12) was -90%, the growth at 10 µM (SF-539 [1]) was -47% and the growth at 100 µM (MDA-MB-468) was -85%. The growth at 1 µM (SK-MEL-5) was 95%, the growth at 0.01 µM (A498) was 78% and the growth at 0.1 µM (HCT-116) was 95%. The growth at 0.01 µM (NCI-H522 [2]) was 85%, the growth at 0.1 µM (U-251 [3]) was 91% and the growth at 0.01 µM (T47D [4]) was 90%. For the same molecule, the growth at 0.01 µM (M14) was 98%, the growth at 0.01 µM (A549 [5]) was 96% and the growth at 0.1 µM (UACC-62 [6]) was 100%. For the same molecule, the growth at 0.1 µM (MDA-MB-435) was 99%, the growth at 1 µM (DU-145) was 88% and the LC50 (U-251 [7]) was 23.8 µM. The TGI (U-251 [7]) was 5.37 µM, the growth at 100 µM (OVCAR-5) was -30% and the growth at 0.1 µM (T47D [8]) was 94%. The GI50 (T47D [9]) was 3.23 µM, the LC50 (T47D [9]) was > 100 µM and the TGI (T47D [9]) was 26.1 µM. For the same molecule, the growth at 0.1 µM (Malme-3M) was 100%, the LC50 (concentration giving 50% net cell kill) (A549 [10]) was > 100 µM and the TGI (A549 [10]) was 15.8 µM. The growth at 0.01 µM (SF-539 [11]) was 98%, the growth at 1 µM (NCI-H23) was 85% and the growth at 1 µM (OVCAR-3) was 92%. The growth at 100 µM (NCI-H460 [12]) was -81%, the growth at 1 µM (NCI-H460 [13]) was 87% and the growth at 0.01 µM (SK-OV-3) was 99%. The LC50 (HCT-15) was > 100 µM, the TGI (HCT-15) was > 100 µM and the LC50 (UACC-62 [14]) was 40.9 µM. It also gave a TGI (UACC-62 [14]) of 14.8 µM, a growth at 10 µM (NCI-H522 [15]) of -45% and a GI50 (MDA-MB-231 [16]) of 2.44 µM. The LC50 (MDA-MB-231 [16]) was 31.7 µM, the TGI (MDA-MB-231 [16]) was 7.39 µM and the LC50 (concentration killing 50% of cells) (RXF 393) was 15.9 µM. The TGI (RXF 393) was 5.39 µM, the growth at 0.1 µM (MDA-MB-231 [17]) was 96% and the growth at 10 µM (SF-268) was -12%.
